Data published in the NIST ThermoML archive (doi:10.1016/j.fluid.2005.07.009).
± gives the expanded uncertainty stated by the source.

Tests used:
[1] = molar heat capacity at constant pressure; conditions: 101.33 kPa, Small sample (50 mg) DSC
[2] = Molar enthalpy of transition or fusion; conditions: DSC
[3] = DTA

NCCCN [1,3-propanediamine]
[1]
Conditions | molar heat capacity at constant pressure [J/K/mol]
210.17 K, Crystal 2 | 95.15 ± 1.9
211.63 K, Crystal 2 | 98.6 ± 2
212.38 K, Crystal 2 | 99.24 ± 2
213.45 K, Crystal 2 | 100.56 ± 2
214.52 K, Crystal 2 | 101.65 ± 2
215.39 K, Crystal 2 | 102.15 ± 2
216.89 K, Crystal 2 | 102.21 ± 2
217.39 K, Crystal 2 | 102.47 ± 2
218.2 K, Crystal 2 | 103.01 ± 2.1
219.56 K, Crystal 2 | 103.15 ± 2.1
220.98 K, Crystal 2 | 103.33 ± 2.1
221.6 K, Crystal 2 | 104.53 ± 2.1
222.57 K, Crystal 2 | 105.45 ± 2.1
223.61 K, Crystal 2 | 106.47 ± 2.1
224.16 K, Crystal 2 | 106.75 ± 2.1
225.7 K, Crystal 2 | 106.91 ± 2.1
226.44 K, Crystal 2 | 107.67 ± 2.1
226.87 K, Crystal 2 | 108.07 ± 2.2
228.09 K, Crystal 2 | 108.1 ± 2.2
229.51 K, Crystal 2 | 108.47 ± 2.2
230.13 K, Crystal 2 | 109.74 ± 2.2
231.59 K, Crystal 2 | 110.88 ± 2.2
232.5 K, Crystal 2 | 111.31 ± 2.2
233.79 K, Crystal 2 | 111.43 ± 2.2
234.58 K, Crystal 2 | 113.62 ± 2.3
235.36 K, Crystal 2 | 115.41 ± 2.3
237.9 K, Crystal 2 | 116.57 ± 2.3
238.39 K, Crystal 2 | 116.7 ± 2.3
239.37 K, Crystal 2 | 117.02 ± 2.3
240.41 K, Crystal 2 | 119.05 ± 2.4
269.31 K, Liquid | 200.32 ± 4
271.34 K, Liquid | 200.44 ± 4
273.29 K, Liquid | 200.87 ± 4
275.36 K, Liquid | 200.94 ± 4
277.41 K, Liquid | 201.41 ± 4
279.63 K, Liquid | 201.51 ± 4
281.55 K, Liquid | 201.82 ± 4
283.37 K, Liquid | 202.03 ± 4
285.47 K, Liquid | 202.29 ± 4
287.35 K, Liquid | 202.53 ± 4
289.23 K, Liquid | 202.79 ± 4.1
291.28 K, Liquid | 203.12 ± 4.1
293.27 K, Liquid | 203.44 ± 4.1
295.53 K, Liquid | 204.02 ± 4.1
297.16 K, Liquid | 204.35 ± 4.1
299.44 K, Liquid | 204.4 ± 4.1
302.13 K, Liquid | 204.56 ± 4.1
304.68 K, Liquid | 204.87 ± 4.1
306.46 K, Liquid | 204.95 ± 4.1
308.51 K, Liquid | 205.44 ± 4.1
310.56 K, Liquid | 205.49 ± 4.1
312.42 K, Liquid | 205.78 ± 4.1
315.65 K, Liquid | 206.16 ± 4.1
317.6 K, Liquid | 206.28 ± 4.1
320.27 K, Liquid | 206.67 ± 4.1
322.36 K, Liquid | 206.76 ± 4.1
325.51 K, Liquid | 207.27 ± 4.2
327.54 K, Liquid | 207.43 ± 4.2
330.44 K, Liquid | 207.85 ± 4.2
333.46 K, Liquid | 207.99 ± 4.2

Crystal 1
Conditions | Molar enthalpy of transition or fusion [kcal/mol] | Triple point temperature [K]
[2] | 5.34 ± 0.158 | –
[3] | – | 262.19 ± 0.5

CCCCCCCCCCCO [1-undecanol]
[1]
Conditions | molar heat capacity at constant pressure [J/K/mol]
208.41 K, Crystal | 193.11 ± 3.9
209.57 K, Crystal | 193.3 ± 3.9
210.11 K, Crystal | 194.69 ± 3.9
211.02 K, Crystal | 194.71 ± 3.9
212.12 K, Crystal | 196.33 ± 3.9
213.87 K, Crystal | 198.62 ± 4
214.48 K, Crystal | 201.14 ± 4
215.51 K, Crystal | 201.98 ± 4
216.84 K, Crystal | 205.69 ± 4.1
217.02 K, Crystal | 206.89 ± 4.1
218.35 K, Crystal | 208.79 ± 4.2
219.08 K, Crystal | 211.05 ± 4.2
220.29 K, Crystal | 213.58 ± 4.3
221.74 K, Crystal | 215.54 ± 4.3
222.1 K, Crystal | 216.27 ± 4.3
223.31 K, Crystal | 218.06 ± 4.4
224.39 K, Crystal | 219.4 ± 4.4
225.72 K, Crystal | 221.14 ± 4.4
226.26 K, Crystal | 221.42 ± 4.4
227.04 K, Crystal | 223.37 ± 4.5
228.49 K, Crystal | 225.69 ± 4.5
229.28 K, Crystal | 228.09 ± 4.6
230 K, Crystal | 228.5 ± 4.6
231.02 K, Crystal | 229.81 ± 4.6
232.16 K, Crystal | 232.96 ± 4.7
233.13 K, Crystal | 234.38 ± 4.7
234.75 K, Crystal | 235.74 ± 4.7
235.83 K, Crystal | 237.03 ± 4.7
236.92 K, Crystal | 238.89 ± 4.8
237.34 K, Crystal | 238.93 ± 4.8
238.6 K, Crystal | 239.94 ± 4.8
239.8 K, Crystal | 239.99 ± 4.8
241.66 K, Crystal | 243.63 ± 4.9
243.34 K, Crystal | 245.99 ± 4.9
244.18 K, Crystal | 246.89 ± 4.9
246.11 K, Crystal | 250.54 ± 5
297.08 K, Liquid | 405.86 ± 8.1
298.17 K, Liquid | 407.32 ± 8.2
299.23 K, Liquid | 408.96 ± 8.2
300.25 K, Liquid | 409.93 ± 8.2
301.38 K, Liquid | 411.68 ± 8.2
302.21 K, Liquid | 412.61 ± 8.2
303.18 K, Liquid | 413.77 ± 8.3
304.11 K, Liquid | 414.87 ± 8.3
305.18 K, Liquid | 415.8 ± 8.3
306.27 K, Liquid | 417.37 ± 8.3
307.49 K, Liquid | 418.89 ± 8.4
308.58 K, Liquid | 419.76 ± 8.4
309.32 K, Liquid | 421.18 ± 8.4
310.02 K, Liquid | 422.07 ± 8.4
311.09 K, Liquid | 423.23 ± 8.5
312.51 K, Liquid | 425.11 ± 8.5
313.48 K, Liquid | 426.38 ± 8.5
314.66 K, Liquid | 427.93 ± 8.6
315.71 K, Liquid | 429.81 ± 8.6
316.18 K, Liquid | 430 ± 8.6
318.29 K, Liquid | 432.46 ± 8.7
320.24 K, Liquid | 435.26 ± 8.7
321.15 K, Liquid | 436.27 ± 8.7
323.33 K, Liquid | 439.56 ± 8.8

Crystal
Conditions | Molar enthalpy of transition or fusion [kcal/mol] | Triple point temperature [K]
[2] | 7.31 ± 0.206 | –
[3] | – | 289.63 ± 0.5

CCCCCCCCCCO [decan-1-ol]
[1]
Conditions | molar heat capacity at constant pressure [J/K/mol]
215.12 K, Crystal | 224.54 ± 4.5
216.09 K, Crystal | 227.81 ± 4.6
217.28 K, Crystal | 228.07 ± 4.6
218.46 K, Crystal | 228.68 ± 4.6
219.05 K, Crystal | 228.9 ± 4.6
219.59 K, Crystal | 229.05 ± 4.6
222.22 K, Crystal | 229.19 ± 4.6
222.81 K, Crystal | 230.27 ± 4.6
223.03 K, Crystal | 230.39 ± 4.6
226.41 K, Crystal | 231.18 ± 4.6
227.05 K, Crystal | 232.61 ± 4.7
229.62 K, Crystal | 232.81 ± 4.7
230.15 K, Crystal | 233.54 ± 4.7
231.71 K, Crystal | 234.37 ± 4.7
232.3 K, Crystal | 234.76 ± 4.7
233.74 K, Crystal | 235.5 ± 4.7
234.54 K, Crystal | 235.92 ± 4.7
235.82 K, Crystal | 237.25 ± 4.8
236.3 K, Crystal | 237.29 ± 4.8
237.11 K, Crystal | 238.88 ± 4.8
238.28 K, Crystal | 239.81 ± 4.8
239.94 K, Crystal | 240.28 ± 4.8
240.47 K, Crystal | 240.35 ± 4.8
241.16 K, Crystal | 241 ± 4.8
242.71 K, Crystal | 241.58 ± 4.8
244.15 K, Crystal | 244.94 ± 4.9
246.13 K, Crystal | 245.49 ± 4.9
248.85 K, Crystal | 245.75 ± 4.9
249.22 K, Crystal | 246.47 ± 4.9
250.88 K, Crystal | 247.17 ± 4.9
251.14 K, Crystal | 247.6 ± 5
252.58 K, Crystal | 250.51 ± 5
253.49 K, Crystal | 252.9 ± 5.1
284.18 K, Liquid | 357.16 ± 7.1
285.11 K, Liquid | 357.65 ± 7.2
286.23 K, Liquid | 359.66 ± 7.2
287.17 K, Liquid | 360.07 ± 7.2
288.21 K, Liquid | 361.72 ± 7.2
289.63 K, Liquid | 363.32 ± 7.3
290.29 K, Liquid | 363.87 ± 7.3
291.08 K, Liquid | 364.63 ± 7.3
292.13 K, Liquid | 366.29 ± 7.3
293.23 K, Liquid | 366.99 ± 7.3
294.29 K, Liquid | 368.16 ± 7.4
295.69 K, Liquid | 369.19 ± 7.4
296.43 K, Liquid | 370.09 ± 7.4
297.49 K, Liquid | 370.33 ± 7.4
298.55 K, Liquid | 373 ± 7.5
299.51 K, Liquid | 374.14 ± 7.5
300.21 K, Liquid | 375.31 ± 7.5
301.18 K, Liquid | 375.74 ± 7.5
302.45 K, Liquid | 377.89 ± 7.6
304.22 K, Liquid | 380.22 ± 7.6
305.31 K, Liquid | 381.17 ± 7.6
306.42 K, Liquid | 382.5 ± 7.7
307.18 K, Liquid | 383.77 ± 7.7
308.14 K, Liquid | 384.86 ± 7.7

Crystal
Conditions | Molar enthalpy of transition or fusion [kcal/mol] | Triple point temperature [K]
[2] | 7.5 ± 0.213 | –
[3] | – | 278.67 ± 0.5
